In patent US20070275968A1, “Substituted Biphenyl Derivative” (priority 2004, published 2007):
Read-outs that look alike come from different tables or passages of the source.

Legend:
NRK-49F cells = assay: Collagen synthesis inhibition test; type: cell-based; settings: 25 ng/mL TGF-β added, cultured about 44 hr, 3H-labeled proline taken into collagen, no TGF-β = 100% inhibition, no test compound = 0% inhibition, read-out: Collagen synthesis inhibiting activity IC50
Description: Collagen Synthesis Inhibition Test
Collagen synthesis inhibiting activity was evaluated by the following assay.
NRK-49F cells (Dainippon Pharmaceutical) are seeded into a 96-well plate. After becoming confluent, the medium is changed to a serum-free Dulbecco's modified MEM medium (Invitrogen) containing 5 μg/mL insulin, 5 μg/mL transferin, and 5 ng/mL selenious acid. One day later, the medium is changed to a serum-free Dulbecco's modified MEM medium (80 μl) containing 10 ng/mL IGF-II (Sigma) and 50 μg/mL L-ascorbic acid (Sigma), and a ten times concentration of a test compound (10 μl) is added thereto. Thirty minutes later, 25 ng/mL TGF-β (R&D System: 10 μL) is added to the medium, and the cells are cultured for about 44 hr. Twenty four hours before the termination of the culturing, ^3H-labeled proline (Amersham: 1 μCi) is added so as to be taken into collagen in the cells. When the culturing is terminated, 30% trichloroacetic acid (50 μL) is added to the medium. After leaving for 20 min, proteins are precipitated by centrifugation at 3000 rpm for 10 min. The supernatant is removed, and the residue is twice washed with 200 μL of a washing solution (ethanol:ether=3:1). The precipitate is air-dried, and the washing solution is sufficiently removed. After addition of 60 μL of a collagenase solution (2 mg/mL collagenase VII (Sigma), 50 mM Tris-HCl (pH 7.4), 5 mM CaCl2), the resulting mixture is treated at 37° C. for 2 hr to decompose collagen. Then, 90 μL of 15% trichloroacetic acid and 5% tannic acid are added thereto. The resulting mixture is left for 20 min and then centrifuged at 3000 rpm for 10 min. The supernatant (50 μL) is transferred to LumaPlate (PerkinElmer Lifescience) and is air-dried. Then, the amount of ^3H is measured by a Top Count.

Row | SMILES | IC50 (NRK-49F cells; Rattus norvegicus) | melting point | IC50 (NRK-49F cells)
1 | Cc1cccc(-c2[nH]c(C(C)C)nc2-c2cccc(-c3ccc(S(C)(=O)=O)cc3)c2)n1 [Example 17, 2-{2-Isopropyl-4-[4′-(methylsulfonyl)-1,1′-biphenyl-3-yl]-1H-imidazol-5-yl}-6-methylpyridine] | 350 nM | 104 to 106 °C | 
2 | Cc1cccc(-c2[nH]c(C(C)C)nc2-c2cccc(-c3ccc(C(=O)NN4CCN(C)CC4)cc3)c2)n1 [Example 48, N-(4-Methylpiperazin-1-yl)-4-{3-[2-isopropyl-5-(6-methylpyridin-2-yl)-1H-imidazol-4-yl]phenyl}benzamide] | 1490 nM |  | 
3 | Cc1cccc(-c2[nH]c(C(C)C)nc2-c2ccc(F)c(-c3ccc(C(=O)NC4CCOCC4)cc3)c2)n1 [Example 65, N-(Tetrahydropyran-4-yl)-4-{2-fluoro-5-[2-isopropyl-5-(6-methylpyridin-2-yl)-1H-imidazol-4-yl]phenyl}benzamide] | 520 nM | 130 to 132 °C | 
4 | Cc1cccc(-c2nc(C(C)C)[nH]c2-c2ccc(F)c(-c3ccc(CN4CCOCC4)cc3)c2)n1 [Example 109] |  |  | 130 nM
5 | Cc1cccc(-c2nc(C(C)C)[nH]c2-c2ccc(F)c(-c3cnn(C)c3)c2)n1 [Example 110, 2-{5-[4-Fluoro-3-(1-methyl-1H-pyrazol-4-yl)phenyl]-2-isopropyl-1H-imidazol-4-yl}-6-methylpyridine] | 50 nM | 77 to 97 °C | 
6 | Cc1cccc(-c2cn(C(C)C)nc2-c2ccc(F)c(-c3cn[nH]c3)c2)n1 [Example 112, 2-{5-[4-Fluoro-3-(1H-pyrazol-4-yl)phenyl]-2-isopropyl-1H-pyrazol-4-yl}-6-methylpyridine] |  |  | 30 nM
7 | Cc1cccc(-c2[nH]c(C(C)C)nc2-c2ccc(F)c(-c3ccc(OCCN4CCCCC4)cc3)c2)n1 [Example 117, 2-{4-[6-Fluoro-4′-(2-piperidin-1-ylethoxy)-1,1′-biphenyl-3-yl]-2-isopropyl-1H-imidazol-5-yl}-6-methylpyridine] | 1170 nM |  | 
8 | Cc1cccc(-c2nc[nH]c2-c2ccc(F)c(-c3cnn(C)c3)c2)n1 [Example 121, 2-{5-[4-Fluoro-3-(1-methyl-1H-pyrazol-4-yl)phenyl]-1H-imidazol-4-yl}-6-methylpyridine] | 10 nM | 205 °C | 
9 | Cc1cccc(-c2[nH]c(C(C)C)nc2-c2ccc(F)c(-c3ccc4c(c3)CCS4(=O)=O)c2)n1 [Example 125, 2-{4-[3-(1,1-Dioxido-2,3-dihydro-1-benzothien-5-yl)-4-fluorophenyl]-2-isopropyl-1H-imidazol-5-yl}-6-methylpyridine] | 230 nM | 119 to 123 °C | 
10 | Cc1cccc(-c2[nH]c(C(C)C)nc2-c2ccc(F)c(-c3ccc(S(N)(=O)=O)cc3)c2)n1 [Example 127, 2′-Fluoro-5′-[2-isopropyl-5-(6-methylpyridin-2-yl)-1H-imidazol-4-yl]-1,1′-biphenyl-4-sulfonamide] | 790 nM | 245 to 246 °C | 
11 | CNS(=O)(=O)c1ccc(-c2cc(-c3c[nH]nc3-c3cccc(C)n3)ccc2F)cc1 [Example 156, 2′-Fluoro-N-methyl-5′-[3-(6-methylpyridin-2-yl)-1H-pyrazol-4-yl]-1,1′-biphenyl-4-sulfonamide] | 100 nM |  | 
12 | Cc1cccc(-c2n[nH]cc2-c2ccc(F)c(-c3cnn(CCO)c3)c2)n1 [Example 162, 2-(4-{2-Fluoro-5-[3-(6-methylpyridin-2-yl)-1H-pyrazol-4-yl]phenyl}-1H-pyrazol-1-yl)ethanol] | 30 nM |  | 
13 | Cc1cccc(-c2nn(C)cc2-c2ccc(F)c(-c3ccc(S(C)(=O)=O)cc3)c2)n1 [Example 199, 2-{4-[6-Fluoro-4′-(methylsulfonyl)-1,1′-biphenyl-3-yl]-1-methyl-1H-pyrazol-3-yl}-6-methylpyridine] |  | 66 to 67 °C | 
14 | Cc1cccc(-c2nn(C(C)C)cc2-c2ccc(F)c(-c3ccc(S(C)(=O)=O)cc3)c2)n1 [Example 200, 2-{4-[6-Fluoro-4′-(methylsulfonyl)-1,1′-biphenyl-3-yl]-1-isopropyl-1H-pyrazol-3-yl}-6-methylpyridine] |  | 172 to 173 °C | 
15 | Cn1cc(-c2cc(-c3c[nH]nc3-c3ccccn3)ccc2F)cn1 [Example 201, 2-{4-[4-Fluoro-3-(1-methyl-1H-pyrazol-4-yl)phenyl]-1H-pyrazol-3-yl}pyridine] |  | 134 to 136 °C | 
16 | CS(=O)(=O)c1ccc(-c2cc(-c3c[nH]nc3-c3cccc(C4CC4)n3)ccc2F)cc1 [Example 203, 2-Cyclopropyl-6-{4-[6-fluoro-4′-(methylsulfonyl)-1,1′-biphenyl-3-yl]-1H-pyrazol-3-yl}pyridine] |  | 102 to 104 °C | 
17 | NS(=O)(=O)c1ccc(-c2cc(-c3c[nH]nc3-c3cccc(C4CC4)n3)ccc2F)cc1 [Example 204, 5′-[3-(6-Cyclopropylpyridin-2-yl)-1H-pyrazol-4-yl]-2′-fluoro-1,1′-biphenyl-4-sulfonamide] |  | 225 to 226 °C | 
18 | Cc1cccc(-c2n[nH]cc2-c2ccc(F)c(-c3cc[nH]n3)c2)n1 [Example 205, 2-{4-[4-Fluoro-3-(1H-pyrazol-3-yl)phenyl]-1H-pyrazol-3-yl}-6-methylpyridine] |  | 105 to 108 °C | 
19 | Cc1cccc(-c2n[nH]cc2-c2ccc(F)c(-c3c[nH]c(C(O)CO)n3)c2)n1 (stereo not shown) [Example 207, 1-(4-{2-Fluoro-5-[3-(6-methylpyridin-2-yl)-1H-pyrazol-4-yl]phenyl}-1H-imidazol-2-yl)ethane-1,2-diol] |  | 125 to 127 °C | 
20 | Cc1cccc(-c2n[nH]cc2-c2ccc(F)c(-c3c[nH]c(CO)n3)c2)n1 [Example 208, (4-{2-Fluoro-5-[3-(6-methylpyridin-2-yl)-1H-pyrazol-4-yl]phenyl}-1H-imidazol-2-yl)methanol] |  | 243 to 246 °C | 
21 | Cc1cccc(-c2n[nH]cc2-c2ccc(F)c(-c3c[nH]c(CC(C)(C)O)n3)c2)n1 [Example 210, 1-(4-{2-Fluoro-5-[3-(6-methylpyridin-2-yl)-1H-pyrazol-4-yl]phenyl}-1H-imidazol-2-yl)-2-methylpropan-2-ol] |  | 136 to 140 °C | 
22 | Cc1cccc(-c2n[nH]cc2-c2ccc(F)c(-c3cn4c(n3)[S+]([O-])CC4)c2)n1 (stereo not shown) [Example 211, 6-{2-Fluoro-5-[3-(6-methylpyridin-2-yl)-1H-pyrazol-4-yl]phenyl}-2,3-dihydroimidazo[2,1-b][1,3]thiazole 1-oxide] |  | 140 to 144 °C | 
23 | Cc1cccc(-c2n[nH]cc2-c2ccc(F)c(-c3c[nH]c(CCN4CCOCC4)n3)c2)n1 [Example 213, 4-[2-(4-{2-Fluoro-5-[3-(6-methylpyridin-2-yl)-1H-pyrazol-4-yl]phenyl}-1H-imidazol-2-yl)ethyl]morpholine] |  | 239 to 240 °C | 
24 | Cc1cccc(-c2nc(N)sc2-c2ccc(F)c(-c3ccc(S(C)(=O)=O)cc3)c2)n1 [Example 215, 5-[6-Fluoro-4′-(methylsulfonyl)-1,1′-biphenyl-3-yl]-4-(6-methylpyridin-2-yl)-1,3-thiazol-2-amine] |  | 202 to 204 °C | 
25 | Cc1cccc(-c2nc(N)sc2-c2ccc(F)c(-c3ccc(S(N)(=O)=O)cc3)c2)n1 [Example 216, 5′-[2-Amino-4-(6-methylpyridin-2-yl)-1,3-thiazol-5-yl]-2′-fluoro-1,1′-biphenyl-4-sulfonamide] |  | 190 to 192 °C | 
